Measurements published in patent US4559323A, “A41030 Antibiotics” (Eli Lilly and Company, priority 1984, dated 1985).
Where two headings read alike, the source gives them in different places.

Columns and labels:
[1] = Electrometric titration (pKa); format: physicochemical; details: electrometric titration in 66% dimethylformamide in water
Solubility in solvents = format: physicochemical; details: solvents as named
From the text: The seven antibiotic factors are recovered from the fermentation and are obtained as a mixture, the A41030 complex. It will be recognized that the ratio of the factors in the A41030 complex will vary, depending upon the fermentation conditions used. The individual factors […], and G are separated and isolated as individual compounds, as hereinafter described.

Staphylococcus aureus = assay: Agar-dilution MIC; format: cell-based; details: Table 17, 24 hours
Hemophilus influenzae = assay: Agar-dilution MIC; format: cell-based; details: Table 17, 24 hours
[2] = system: Staphylococcus epidermidis; assay: Agar-dilution MIC; format: cell-based; details: Table 17; 24 hours; Staphylococcus epidermidis EPI1
From the text: (§1) The agar-dilution procedure described by the International Collaborative study (ICS) group was used to determine the minimum inhibitory concentrations (MIC's).

Streptococcus pneumoniae = assay: Agar-dilution MIC; format: cell-based; details: Table 17; 24 hours; Streptococcus pneumoniae Park I
From the text: as §1

Streptococcus pyogenes = assay: Agar-dilution MIC; format: cell-based; details: Table 17; 24 hours; Streptococcus pyogenes C203
From the text: as §1

[3] = system: Streptococcus sp. (Group D); assay: Agar-dilution MIC; format: cell-based; details: Table 17, 24 hours
From the text: as §1

Bacteroides fragilis = assay: Agar-dilution MIC (anaerobes); format: cell-based; details: Table 14
From the text: as §1

B. thetaiotaomicron = format: cell-based; details: Table 14; Bacteroides thetalotaomicron 1438
From the text: as §1

Propionibacterium acnes = assay: Agar-dilution MIC (anaerobes); format: cell-based; details: Table 14; Propionibacterium acnes 79
From the text: Antibiotic A41030 factors A, B and C have also been tested and found to be active against a genus of anaerobic bacteria identified as Propionibacterium acnes.

Clostridium difficile = format: cell-based
From the text: The A41030 antibiotic factors A, B, C, D, E, F, and G, are also active against a number of strains of Clostridium difficile, as determined by the agar-dilution method.

Clostridium perfringens = format: cell-based; details: Table 14; Clostridium perfringens 81
Clostridium septicum = assay: Agar-dilution MIC (anaerobes); format: cell-based; details: Table 14; Clostridium septicum 1128
Eubacterium aerofaciens = assay: Agar-dilution MIC (anaerobes); format: cell-based; details: Table 14; Eubacterium aerofaciens 1235
Peptococcus prevoti = assay: Agar-dilution MIC (anaerobes); format: cell-based; details: Table 14; Peptococcus prevoti 1281
[4] = system: Peptostreptococcus anaerobius; assay: Agar-dilution MIC (anaerobes); format: cell-based; details: Table 14; Peptostreptococcus anaerobius 1428
[5] = system: Peptostreptococcus intermedius; assay: Agar-dilution MIC (anaerobes); format: cell-based; details: Table 14; Peptostreptococcus intermedius 1264
[6] = system: Bacteroides melaninogenicus; assay: Agar-dilution MIC (anaerobes); format: cell-based; details: Table 14; Bacteroides melaninogenicus 2736
Fusobacterium symbiosum = assay: Agar-dilution MIC (anaerobes); format: cell-based; details: Table 14; Fusobacterium symbiosum 1470
[7] = system: Fusobacterium necrophorum; assay: Agar-dilution MIC (anaerobes); format: cell-based; details: Table 14; Fusobacterium necrophorum 6054A
Salmonella typhi = assay: Agar-dilution MIC; format: cell-based; details: Table 17, 24 hours
S. pneumoniae = assay: Experimental bacterial infection in mice, subcutaneous ED50; format: in vivo; details: two doses subcutaneously
Procedure: (§2) All of the A41030 factors tested have shown in vivo antimicrobial activity against experimental bacterial infections. When two doses of test compound were administered subcutaneously to mice in illustrative infections, the activity observed is measured as an ED50 value [effective dose in mg./kg. to protect fifty percent of the test animals: See Warren Wick, et al., J. Bacteriol. 81, 233-235 (1961)].

S. pyogenes = assay: as above; format: in vivo; details: two doses subcutaneously
Procedure: as §2

Staph. aureus = assay: as above; format: in vivo; details: two doses subcutaneously
Procedure: as §2

Bacteroides corrodens = assay: Agar-dilution MIC (anaerobes); format: cell-based; details: Table 14; Bacteroides corrodens 1874
Bacteroides vulgatis = assay: Agar-dilution MIC (anaerobes); format: cell-based; details: Table 14; Bacteroides vulgatis 1211
[8] = system: Peptococcus asaccharolyticus; assay: Agar-dilution MIC (anaerobes); format: cell-based; details: Table 14; Peptococcus asaccharolyticus 1302

## A41030 factor F
[1]
  pKa, first titratable group: about 5.4
  pKa, second titratable group: ~7.1
Solubility in solvents
  Solubility: soluble in the same solvents as factor A
Staphylococcus aureus; Staphylococcus aureus 3055
  MIC: 0.5 µg/mL
Staphylococcus aureus; Staphylococcus aureus S13E
  MIC: 1 µg/mL
Staphylococcus aureus; Staphylococcus aureus V41
  MIC: 0.5 µg/mL
Staphylococcus aureus; Staphylococcus aureus X400
  MIC: 1 µg/mL
Hemophilus influenzae; Haemophilus influenzae 76
  MIC: 32 µg/mL
Hemophilus influenzae; Haemophilus influenzae C.L.
  MIC: 32 µg/mL
[2]
  MIC: 0.25 µg/mL
Streptococcus pneumoniae
  MIC: 2 µg/mL
Streptococcus pyogenes
  MIC: 2 µg/mL
[3]; Streptococcus sp. Group D 9960
  MIC: 4 µg/mL
[3]; Streptococcus sp. Group D X66
  MIC: 4 µg/mL
Bacteroides fragilis; Bacteroides fragilis 111
  MIC: 32 µg/mL
Bacteroides fragilis; Bacteroides fragilis 1877
  MIC: 32 µg/mL
Bacteroides fragilis; Bacteroides fragilis 1936B
  MIC: 32 µg/mL
B. thetaiotaomicron
  MIC: 64 µg/mL
Propionibacterium acnes
  MIC: 1.0 µg/mL
Clostridium difficile
  MIC: 1 µg/mL
Clostridium difficile; Table 16, C. difficile 78
  MIC: 1.0 µg/mL
Clostridium difficile; Table 16, C. difficile 107B
  MIC: 1.0 µg/mL
Clostridium difficile; Table 16, C. difficile 111F
  MIC: 2 µg/mL
Clostridium difficile; Table 16, C. difficile 1153
  MIC: 2 µg/mL
Clostridium difficile; Table 16, C. difficile 2634
  MIC: 2 µg/mL
Clostridium difficile; Table 16, C. difficile 3424-5B
  MIC: 1.0 µg/mL
Clostridium difficile; Table 16, C. difficile 3816
  MIC: 1.0 µg/mL
Clostridium difficile; Table 16, C. difficile 3950
  MIC: 1.0 µg/mL
Clostridium difficile; Table 16, C. difficile 6890
  MIC: 1.0 µg/mL
Clostridium difficile; Table 16, C. difficile 8484
  MIC: 1.0 µg/mL
Clostridium difficile; Table 16, C. difficile A-194
  MIC: 1.0 µg/mL
Clostridium difficile; Table 16, C. difficile A-195
  MIC: 1.0 µg/mL
Clostridium difficile; Table 16, C. difficile A-196
  MIC: 2 µg/mL
Clostridium difficile; Table 16, C. difficile A-279
  MIC: 1.0 µg/mL
Clostridium difficile; Table 16, C. difficile A-280
  MIC: 1.0 µg/mL
Clostridium difficile; Table 16, C. difficile A-281
  MIC: 2 µg/mL
Clostridium difficile; Table 16, C. difficile WAL-2112
  MIC: 1.0 µg/mL
Clostridium difficile; Table 16, C. difficile WAL-3657
  MIC: 1.0 µg/mL
Clostridium difficile; Table 16, C. difficile WAL-4268
  MIC: 1.0 µg/mL
Clostridium perfringens
  MIC: 1.0 µg/mL
Clostridium septicum
  MIC: 1.0 µg/mL
Eubacterium aerofaciens
  MIC: 1.0 µg/mL
Peptococcus prevoti
  MIC: 32 µg/mL
[4]
  MIC: 32 µg/mL
[5]
  MIC: 1.0 µg/mL
[6]
  MIC: 1.0 µg/mL
Fusobacterium symbiosum
  MIC: 1.0 µg/mL
[7]
  MIC: 1.0 µg/mL
Salmonella typhi; Salmonella typhi 1335
  MIC: > 128 µg/mL
Salmonella typhi; Salmonella typhi X514
  MIC: > 128 µg/mL
S. pneumoniae
  ED50: > 5.0 mg/kg
S. pyogenes
  ED50: > 5.0 mg/kg
Staph. aureus
  ED50: < 0.31 mg/kg
Bacteroides corrodens
  MIC: 32 µg/mL
Bacteroides vulgatis
  MIC: 32 µg/mL
[8]
  MIC: ≤ 0.25 µg/mL
